According to patent US10376486B2, “Compositions and methods for reactivating latent viral infections” (priority 2014, dated 2019):

Key:
[1] = tested on: latent HIV in J-Lat A1 cells; test: HIV latency reactivation in J-Lat A1 cells (GFP expression by flow cytometry); assay type: cell-based
Description: (§1) FIG. 1: PEP005 induces reactivation of HIV latency in vitro. J-Lat A1 cells were exposed to different concentrations of PEP005 and virus reactivation was measured by GFP expression using flow cytometry. Cell viability was determined by Live/Dead dye staining. (A) Chemical Structure of PEP005. […] (D) PEP005 potently reactivates latent HIV in cell lines compared with other LRAs. J-Lat A1 cells were treated with 10 nM PEP005, 500 nM SAHA, 2 μM JQ1, 2 μM GSK343, 10 ng/ml TNF, 2 μM Prostratin, or 5 ng/ml PMA for 24 hours and the percentage of GFP expression was evaluated using flow cytometry. *, p<0.05; **, p<0.01.
FIG. 2: PEP005 synergizes with other latency reversing agents in reactivating latent HIV. (A) J-Lat A1 cells were treated with 5 ng/ml PMA, 6 nM PEP005, 500 nM SAHA, 2 μM JQ1, 2 μM GSK343, or 10 μM Prostratin alone or in combination with 6 nM PEP005 for 24 hours and the percentage of GFP expressing cells was determined using flow cytometry. **, p<0.01; *, p<0.05 compared with control treatment; **, p<0.01; *, p<0.05 compared with PEP005 treatment alone. (B) The U1 cells were treated with 5 ng/ml PMA, 6 nM PEP005, 500 nM SAHA, 2 μM JQ1, or 2 μM GSK343, alone or in combination with 6 nM PEP005 for 24 hours and the HIV transcription was evaluated using RT-qPCR. Numbers indicate fold-increase over the control. **, p<0.01; *, p<0.05 compared with control treatment; **, p<0.01; *, p<0.05 compared with PEP005 treatment alone. […] The Bliss independence model was utilized for calculation of synergy for LRA combinations. Dotted horizontal line signifies pure additive effect (Δfaxy=0). Synergy is defined as Δfaxy>0 while Δfaxy<0 indicates antagonism. Statistical significance was determined using a one tailed ratio t-test comparing predicted and observed drug combination effects. *p<0.05; **p<0.01.
J-Lat A1 cells (harboring a single copy of latent HIV LTR and one copy of green fluorescent protein gene under the HIV LTR control) or U1 cells (harboring two latent HIV genomes with defective Tat gene) were cultured in RPMI1640 medium with 10% fetal bovine serum (FBS) and 1% Pen/strep in a 37° C. incubator containing 5% CO2 [24,31]. Both of the cell lines were obtained from NIH AIDS Reagent Program. For reactivation of HIV LTR, cells were treated with PMA (Sigma), JQ1 (Biovision), Prostatin (Sigma), SAHA (Santa Cruz), TNF-α (BD), GSK343 (Sigma), or PEP005 (Tocris Bioscience) for 24 h. HIV reactivation was quantified by GFP expression using flow cytometry and the data were analyzed using FlowJo Software for J-Lat A1 cells, or by quantitative RT-PCR (RT-qPCR) for J-Lat A1 and U1 cells. Cell viability was evaluated using Live/Dead dye (Life Technologies) by flow cytometry. So far, there is not a single in vitro cell culture model available that captures all the features of HIV latency. However, PKC agonists seem to reactivate latent HIV in all the cell culture models of viral latency. Similar to other J-Lat cell lines, the J-Lat A1 clone has been widely used by researchers for HIV latency studies. The T-cell-derived J-Lat A1 cells harbor one copy of a construct containing a Tat and a green fluorescent protein (GFP) gene framed by the 5′ and 3′ HIV LTR [32]. The J-Lat A1 cells also contain the TAR loop located within the R region of HIV LTR (nt +1 to +60), which provides an opportunity for Tat-TAR interactions for the modulation of transcription and transcriptional elongation. […]

J-Lat A1 cells = test: Cell viability of J-Lat A1 cells by Live/Dead dye staining; assay type: cell-based; settings: 2-40 nM PEP005
Description: as §1
J-Lat A1 cells (harboring a single copy of latent HIV LTR and one copy of green fluorescent protein gene under the HIV LTR control) or U1 cells (harboring two latent HIV genomes with defective Tat gene) were cultured in RPMI1640 medium with 10% fetal bovine serum (FBS) and 1% Pen/strep in a 37° C. incubator containing 5% CO2 [24,31]. Both of the cell lines were obtained from NIH AIDS Reagent Program. […] HIV reactivation was quantified by GFP expression using flow cytometry and the data were analyzed using FlowJo Software for J-Lat A1 cells, or by quantitative RT-PCR (RT-qPCR) for J-Lat A1 and U1 cells. Cell viability was evaluated using Live/Dead dye (Life Technologies) by flow cytometry. […]

C/C=C(/C)C(=O)O[C@H]1C(C)=C[C@]23C(=O)[C@@H](C=C(CO)[C@@H](O)[C@]12O)[C@H]1[C@@H](C[C@H]3C)C1(C)C [PEP005, (1aR,2S,5R,5aS,6S,8aS,9R,10aR)-5,5a-Dihydroxy-4-(hydroxymethyl)-1,1,7,9-tetramethyl-11-oxo-1a,2,5,5a,6,9,10,10a-octahydro-1H-2,8a-methanocyclopenta[a]cyclpropa[e][10]annulen-6-yl (2Z)-2-methylbut-2-enoate]
concentration at which effect on HIV expression was evident [1]: 2 nM | HIV reactivation compared to other compounds known to reactivate HIV ([1]; 10 nM PEP005 vs 500 nM SAHA, 2 μM JQ1, 2 μM GSK343, 2 μM Prostratin, 5 ng/ml PMA, 24 h): more potent than SAHA | increase in the reactivation of HIV latency compared to untreated controls ([1]; 20 nM PEP005): 7 fold | induction of HIV expression, agent alone ([1]; GFP, 24 h, PEP005 2-40 nM, GSK343 2 μM): dose-dependent manner | cellular toxicity (J-Lat A1 cells): absence of any apparent cellular toxicity
